Laboratory results published in paper PMC12263422, “Cryo-EM structure of the human THIK-1 K2P K^+ channel reveals a lower Y gate regulated by lipids and anesthetics” (Nature Structural & Molecular Biology, 2025).
pEC50: −log10 of the molar value. Several values for one entry are separate records, joined by “and”; a condition that tells them apart may be missing. Identical values can stand only once. Like-named read-outs stand apart in the source and are kept apart here.

Experiments:
Type in all cases: cell-based
THIK-1 Y102A = target: T1, THIK-1 Y102A (Homo sapiens, UniProt Q9HB14, Y102A); experiment: Inside-out excised patch recordings, oocytes, THIK-1 Y102A mutant (lipid activation); conditions: read-out: Linoleic acid EC50
T1 construct: expressed in transfected cells; host or cells: Xenopus oocytes (mRNA injection)
T1 sequence (Q9HB14 whole entry Y102A): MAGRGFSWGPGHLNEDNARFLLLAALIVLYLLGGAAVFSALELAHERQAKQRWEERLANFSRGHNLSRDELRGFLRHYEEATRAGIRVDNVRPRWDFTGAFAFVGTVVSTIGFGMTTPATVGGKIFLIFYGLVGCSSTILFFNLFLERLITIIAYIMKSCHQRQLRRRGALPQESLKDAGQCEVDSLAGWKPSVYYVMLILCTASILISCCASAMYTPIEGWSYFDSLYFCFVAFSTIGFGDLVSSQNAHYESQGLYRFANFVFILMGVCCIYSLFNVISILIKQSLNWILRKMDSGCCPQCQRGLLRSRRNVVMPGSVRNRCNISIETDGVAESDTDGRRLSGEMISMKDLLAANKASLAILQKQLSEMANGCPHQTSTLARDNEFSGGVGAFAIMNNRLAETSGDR
Excerpt: Supplement 41594_2025_1497_MOESM2_ESM.xlsx, sheet "ExtData_Fig_S5f" | column: Linoleic acid EC50 (µM); Y102A

THIK-1 N261A = target: T2, THIK-1 N261A (Homo sapiens, UniProt Q9HB14, N261A); experiment: Inside-out excised patch recordings, oocytes, THIK-1 N261A mutant (lipid activation); conditions: read-out: Linoleic acid EC50
T2 construct: expressed in transfected cells; host or cells: Xenopus oocytes (mRNA injection)
T2 sequence (Q9HB14 whole entry N261A): as the sequence (Q9HB14 whole entry Y102A) above, with A102Y, N261A counted along it
Excerpt: Supplement 41594_2025_1497_MOESM2_ESM.xlsx, sheet "ExtData_Fig_S5f" | column: Linoleic acid EC50 (µM); N261A

THIK-1 R92A = target: T3, THIK-1 R92A (Homo sapiens, UniProt Q9HB14, R92A); experiment: Inside-out excised patch recordings, oocytes, THIK-1 R92A mutant (lipid activation); conditions: for pEC50: Linoleic acid EC50, THIK-1 R92A; for Fold activation with 30.0 µM linoleic acid: THIK-1 R92A
T3 construct: expressed in transfected cells; host or cells: Xenopus oocytes (mRNA injection)
T3 sequence (Q9HB14 1-408 R92A): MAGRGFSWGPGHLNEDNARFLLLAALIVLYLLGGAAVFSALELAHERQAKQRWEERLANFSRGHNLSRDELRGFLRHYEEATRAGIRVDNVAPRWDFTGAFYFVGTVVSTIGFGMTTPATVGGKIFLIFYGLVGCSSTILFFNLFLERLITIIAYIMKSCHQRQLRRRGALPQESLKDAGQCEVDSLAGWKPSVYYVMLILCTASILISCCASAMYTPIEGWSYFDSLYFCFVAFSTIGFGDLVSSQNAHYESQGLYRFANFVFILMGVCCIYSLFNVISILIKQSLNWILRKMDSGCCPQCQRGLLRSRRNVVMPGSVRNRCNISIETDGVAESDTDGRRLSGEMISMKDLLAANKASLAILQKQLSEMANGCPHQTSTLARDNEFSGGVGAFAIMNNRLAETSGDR
Excerpt: Human K2P13.1 THIK-1 (GenBank accession number: NM_022054) and human K2P12.1 THIK-2 (NM_022055.1) were used in this study. For functional expression studies, the respective K^+ channel subtype coding sequences were subcloned into the oocyte expression vector pSGEM or the dual-purpose expression vector pFAW[41] and verified by sequencing. All mutant channels were obtained by site-directed mutagenesis and verified by sequencing. To increase surface expression and macroscopic currents, measurements of THIK-2 channels used a mutated ER retention motif, (R11A R12A R14A R15A R16A; THIK-2*)[20]. Vector DNA was linearized with NheI or MluI, and mRNA was synthesized in vitro using the SP6 or T7 AmpliCap Max High Yield Message Maker Kit (Cellscript, USA) or HiScribe T7 ARCA mRNA Kit (New England Biolabs).
Two-electrode voltage–clamp (TEVC) studies were performed in Xenopus oocytes. All animal use conformed to the Guide for the Care and Use of Laboratory Animals (NIH Publication 85–23), and all experiments using Xenopus toads were approved by the local ethics panels. Oocytes were stored at 17 °C in ND96 recording solution composed of (in mM): 96 NaCl, 2 KCl, 1.8 CaCl2, 1 MgCl2, 5 HEPES (pH 7.5 adjusted with NaOH and HCl), supplemented with Na-pyruvate (275 mg L^–1), theophylline (90 mg L^–1) and gentamicin (50 mg L^–1). Oocytes were injected with 1 ng mRNA for WT or mutant channels, and were incubated for 24–48 h at 17 °C. Two-electrode voltage clamp recordings were then performed as previously described[42],[43]. For macroscopic patch–clamp measurements, oocytes were obtained as described above incubated at 17 °C in a solution containing (mM): 54 NaCl, 30 KCl, 2.4 NaHCO3, 0.82 MgSO4 ×7 H2O, 0.41 CaCl2, 0.33 Ca(NO3)2 ×4 H2O and 7.5 TRIS (pH 7.4 adjusted with NaOH and HCl) for 1–4 days before use. Excised patch recordings in inside-out configuration conditions were performed at room temperature. Patch pipettes were made from thick-walled borosilicate glass GB 200TF-8P (Science Products), had resistances of 0.2–0.5 MΩ (tip diameter, 10–25 µm) and filled with a pipette solution (in mM): 120 KCl, 10 HEPES and 3.6 CaCl2 (pH 7.4 adjusted with KOH and HCl). Intracellular bath solutions and compounds were applied to the cytoplasmic side of excised patches for the various K^+ channels through a gravity flow multi-barrel pipette system. The intracellular solution had the following composition (in mM): 120 KCl, 10 HEPES, 2 EGTA and 1 pyrophosphate (pH adjusted with KOH and HCl). Currents were recorded with an EPC10 amplifier (HEKA Electronics) and sampled at 10 kHz or higher, with filtering set to 3 kHz (–3 dB) or higher, as appropriate for sampling rate. For measurements of GPCR activation, whole-cell currents were recorded for THIK-1 in transiently transfected HEK-293 cells. Cells were stimulated by a ramp protocol between −100 and +60 mV (holding potential, −80 mV). The pipette solution was composed of (in mM): 140 KCl, 2 MgCl2, 1 CaCl2, 2.5 EGTA and 10 HEPES (pH 7.3 adjusted with KOH and HCl). The extracellular bath solution had the following composition (in mM): 135 NaCl, 5 KCl, 2 MgCl2, 2 CaCl2, 10 glucose and 10 HEPES pH (pH 7.3 adjusted with NaOH and HCl). Oxotremorine M (Oxo-M) was added to extracellular bath solution to obtain the final concentration. Single-channel currents were recorded with an Axopatch 200B amplifier through a Digidata 1440A digitizer (Molecular Devices). Data were filtered at 2 kHz and recorded at a 200-kHz sampling rate with the program Clampex (Molecular Devices). Pipette solution and bath solution for cell-attached recordings contained (in mM): 140 KCl, 2 MgCl2, 1 CaCl2 and 10 HEPES (pH 7.4 adjusted with KOH and HCl). For inside-out recordings, the bath solution contained (in mM): 140 KCl, 2 MgCl2, 1 CaCl2 and 10 HEPES (pH 7.2 adjusted with KOH and HCl). All experiments were conducted at room temperature. […]

pEC50 (THIK-1 Y102A; individual recordings): 3.98 and 3.88 and 4.24 and 4.22 and 3.53 and 4.33 and 4.31 and 4.44
pEC50 (THIK-1 Y102A; mean): 4.03
pEC50 (THIK-1 N261A; individual recordings): 4.03 and 3.71 and 4.40 and 4.04 and 3.99 and 3.86
pEC50 (THIK-1 N261A; mean): 3.96
pEC50 (THIK-1 R92A; individual recordings): 4.28 and 4.41 and 4.43 and 4.22 and 4.35 and 4.04 and 3.94
pEC50 (THIK-1 R92A; mean): 4.20
Fold activation with 30.0 µM linoleic acid (THIK-1 R92A; mean): 1.89
SMILES: CCCCC/C=C\C/C=C\CCCCCCCC(=O)O [linoleic acid]
Fold activation with 30.0 µM linoleic acid (THIK-1 R92A; individual recordings): 1.900 and 2.280 and 2.410 and 2.160 and 1.740 and 1.840 and 1.500 and 1.630 and 1.510
